In series [1] the target is T1, YhdE (Escherichia coli, UniProt P25536).
T1 construct: recombinant, cloned in vector pFO4, expressed in E. coli BL21(DE3); PDB entries are of the E33A mutant
Kind of series: fluorescence PPi sensor (4-isoACBA-Zn(II)), real-time. The class given is biochemical. Conditions: 20 mM HEPES pH 7.0, 0.4 mM Zn2+, 0.1 mM 4-isoACBA, 298 K; 75 nM enzyme.

Substrate in series [2]: Cc1cn([C@H]2C[C@H](O)[C@@H](COP(=O)(O)OP(=O)(O)OP(=O)(O)O)O2)c(=O)[nH]c1=O
Described as above. Type of series: biochemical, Escherichia coli. The settings on record: 20 mM HEPES pH 7.0, 0.4 mM Zn2+, 0.1 mM 4-isoACBA, 298 K, 7.5 μM enzyme, 25.0 °C.

Data on two molecules can be found in publication PMC5557916, “A new method to investigate the catalytic mechanism of YhdE pyrophosphatase by using a pyrophosphate fluorescence probe” (Scientific Reports, 2017).

The Km is the substrate concentration at which the rate is half of its maximum.

Regarding `Cc1cn([C@H]2C[C@H](O)[C@@H](COP(=O)(O)OP(=O)(O)OP(=O)(O)O)O2)c(=O)[nH]c1=O` [dTTP], the “apparent Km” value in series [1] is given as “somewhat surprisingly, is similar to that of the wild-type YhdE”.

B1: YhdE (Escherichia coli K-12; E33A) (protein)
chain: MTSLYLASGSPRRQELLAQLGVTFERIVTGIEAQRQPQESAQQYVVRLAREKARAGVAQTAKDLPVLGADTIVILNGEVLEKPRDAEHAAQMLRKLSGQTHQVMTAVALADSQHILDCLVVTDVTFRTLTDEDIAGYVASDEPLDKAGAYGIQGLGGCFVRKINGSYHAVVGLPLVETYELLSNFNALREKRDKHDG
notes: recombinant, cloned in vector pFO4, expressed in E. coli BL21(DE3); PDB entries are of the E33A mutant
Take B1: in series [2], the Km was 75 µM.
